This assay deals with Citron kinase (Homo sapiens (Human), UniProt O14578). Kind of assay: Radiometric citron kinase assay (Eurofins Cat #16-040KP). It is filed as biochemical. The note with it: mean of at least two independent assays; read-out: Radiometric CitK IC50. An excerpt:
In some embodiments, the step of contacting the sample with the compound comprises administering the compound to a subject (e.g., a subject) suffering from cancer. Methods of determining kinase inhibition are well known in the art. For example, kinase activity of an enzyme and the inhibitory capacity of a test compound can be determined by measuring enzyme specific phosphorylation of a substrate. Commercial assays and kits can be employed. For example, kinase inhibition can be determined using a radiometric binding assay, such as using KinaseProfiler™ technology (Eurofins Discovery). This assay method directly detects product formation without the use of modified substrates or coupling enzymes. Test compounds are incubated with kinase, substrate, required cofactors and radioisotope labeled ATP. Following incubation, unreacted radioactive ATP is removed by washing and incorporation of the radiolabeled phosphate into the kinase substrate is assayed to detect phosphoryltransferase activity, which is directly proportional to the amount of phosphorylated substrate. Inhibition of the kinase by a kinase inhibitor prevents phosphorylation of the substrate and thereby limits the incorporation of radiolabeled phosphate. Such an assay is compatible with a microwell assay format, allowing simultaneous determination of IC50 of multiple compounds.
Compounds were screened for biochemical kinase activity (Eurofins Discovery, France) using one of two assays. […] All values in Table 1 are the mean of at least two independent assays.
Citron kinase, sequence (O14578 whole entry): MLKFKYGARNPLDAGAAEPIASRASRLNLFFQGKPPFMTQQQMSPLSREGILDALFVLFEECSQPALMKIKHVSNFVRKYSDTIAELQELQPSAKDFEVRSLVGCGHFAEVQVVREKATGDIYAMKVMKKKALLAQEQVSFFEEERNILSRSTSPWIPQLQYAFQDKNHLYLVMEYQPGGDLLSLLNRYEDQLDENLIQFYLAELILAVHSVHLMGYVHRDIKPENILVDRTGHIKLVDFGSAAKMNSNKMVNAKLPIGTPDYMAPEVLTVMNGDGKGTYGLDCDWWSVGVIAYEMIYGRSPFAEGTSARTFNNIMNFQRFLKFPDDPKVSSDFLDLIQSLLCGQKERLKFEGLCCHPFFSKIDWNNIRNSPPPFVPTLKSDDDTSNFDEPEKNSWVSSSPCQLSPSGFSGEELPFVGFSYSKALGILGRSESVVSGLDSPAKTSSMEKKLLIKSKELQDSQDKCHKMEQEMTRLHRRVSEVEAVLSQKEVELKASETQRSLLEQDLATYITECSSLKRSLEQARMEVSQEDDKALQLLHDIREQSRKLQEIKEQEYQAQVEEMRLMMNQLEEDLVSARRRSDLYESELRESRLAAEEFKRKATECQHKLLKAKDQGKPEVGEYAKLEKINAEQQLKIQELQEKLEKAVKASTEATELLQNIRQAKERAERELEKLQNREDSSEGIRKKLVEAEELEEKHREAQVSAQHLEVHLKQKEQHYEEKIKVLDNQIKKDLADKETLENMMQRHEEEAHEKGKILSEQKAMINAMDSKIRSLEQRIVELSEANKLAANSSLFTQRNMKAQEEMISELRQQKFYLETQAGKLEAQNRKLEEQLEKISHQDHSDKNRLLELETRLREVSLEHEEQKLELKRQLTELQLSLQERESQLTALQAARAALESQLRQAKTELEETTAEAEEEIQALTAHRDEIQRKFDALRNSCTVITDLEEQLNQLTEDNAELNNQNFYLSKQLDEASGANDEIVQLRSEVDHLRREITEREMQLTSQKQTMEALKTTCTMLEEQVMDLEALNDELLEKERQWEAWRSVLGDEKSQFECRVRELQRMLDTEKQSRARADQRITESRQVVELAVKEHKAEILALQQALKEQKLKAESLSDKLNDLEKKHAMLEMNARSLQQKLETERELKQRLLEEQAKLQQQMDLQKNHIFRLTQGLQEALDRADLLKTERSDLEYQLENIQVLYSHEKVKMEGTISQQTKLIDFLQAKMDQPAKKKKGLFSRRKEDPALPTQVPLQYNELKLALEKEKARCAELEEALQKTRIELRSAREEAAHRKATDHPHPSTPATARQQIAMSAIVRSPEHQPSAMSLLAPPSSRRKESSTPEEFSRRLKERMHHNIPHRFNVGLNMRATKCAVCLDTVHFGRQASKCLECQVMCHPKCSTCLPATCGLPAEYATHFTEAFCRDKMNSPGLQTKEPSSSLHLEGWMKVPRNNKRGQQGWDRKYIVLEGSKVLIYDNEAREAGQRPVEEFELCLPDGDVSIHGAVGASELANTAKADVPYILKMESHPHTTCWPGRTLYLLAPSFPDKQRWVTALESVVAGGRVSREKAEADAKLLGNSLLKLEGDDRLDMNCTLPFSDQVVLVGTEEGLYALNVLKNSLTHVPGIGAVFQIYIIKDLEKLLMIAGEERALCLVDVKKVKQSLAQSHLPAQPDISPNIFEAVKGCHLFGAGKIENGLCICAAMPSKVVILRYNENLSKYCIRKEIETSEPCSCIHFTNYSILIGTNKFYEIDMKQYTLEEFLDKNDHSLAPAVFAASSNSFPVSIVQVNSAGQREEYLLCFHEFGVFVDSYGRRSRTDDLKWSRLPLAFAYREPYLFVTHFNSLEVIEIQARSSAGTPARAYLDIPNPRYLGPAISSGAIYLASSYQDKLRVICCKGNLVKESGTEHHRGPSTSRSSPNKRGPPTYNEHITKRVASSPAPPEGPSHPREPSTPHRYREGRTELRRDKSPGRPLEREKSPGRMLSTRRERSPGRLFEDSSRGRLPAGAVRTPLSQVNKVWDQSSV
The term IC50 denotes the concentration that inhibits the measured activity by half. Regarding `Cc1cc(NC(=O)[C@H](N)C(C)(C)C)cc(C)c1-c1ccnc2[nH]ccc12` [Compound F-138, (2R)-2-Amino-N-[3,5-dimethyl-4-(1H-pyrrolo[2,3-b]pyridin-4-yl)phenyl]-3,3-dimethyl-butanamide], the IC50 amounted to 3000 nM.

For `Cc1cc(NC(=O)[C@H](N)C(C)(C)O)ccc1-c1ccnc2[nH]c(C(F)F)cc12` [Compound F-139, (2R)-2-Amino-N-[4-[2-(difluoromethyl)-1H-pyrrolo[2,3-b]pyridin-4-yl]-3-methyl-phenyl]-3-hydroxy-3-methyl-butanamide], the IC50 was 151 nM.

For `CC(C)(C)C[C@@H](N)C(=O)Nc1ccc(-c2ccnc3[nH]c(C4CC4)cc23)cc1` [Compound F-141, (2R)-2-Amino-N-[4-(2-cyclopropyl-1H-pyrrolo[2,3-b]pyridin-4-yl)phenyl]-4,4-dimethyl-pentanamide], the IC50 was found to be 10 nM.

For the compound `Cc1cc(NC(=O)[C@H](N)CC(C)(C)C)ccc1-c1ccnc2[nH]c(C3CC3)cc12` [Compound F-142, (2R)-2-Amino-N-[4-(2-cyclopropyl-1H-pyrrolo[2,3-b]pyridin-4-yl)-3-methyl-phenyl]-4,4-dimethyl-pentanamide], the IC50 was 18 nM.

For `CC(C)(C)C[C@@H](N)C(=O)Nc1ccc(-c2ccnc3[nH]c(C(F)F)cc23)cc1` [Compound F-143, (2R)-2-Amino-N-[4-[2-(difluoromethyl)-1H-pyrrolo[2,3-b]pyridin-4-yl]phenyl]-4,4-dimethyl-pentanamide], the IC50 was found to be 4 nM.

On to `CC(C)(C)C[C@@H](N)C(=O)Nc1ccc(-c2ccnc3[nH]c(C(F)(F)F)cc23)cc1` [Compound F-144, (2R)-2-amino-4,4-dimethyl-N-[4-[2-(trifluoromethyl)-1H-pyrrolo[2,3-b]pyridin-4-yl]phenyl]pentanamide], for which the IC50 worked out at 22 nM.

On to `Cc1cc2c(-c3ccc(NC(=O)[C@H](N)CC(C)(C)C)cn3)ccnc2[nH]1` [Compound F-145, (2R)-2-Amino-4,4-dimethyl-N-(6-(2-methyl-1H-pyrrolo[2,3-b]pyridin-4-yl)pyridin-3-yl)pentanamide], for which the half-inhibitory concentration (IC50) worked out at 26 nM.

Take `CC(C)(C)C[C@@H](N)C(=O)Nc1ccc(-c2ccnc3[nH]c(C(F)(F)F)cc23)cn1` [Compound F-146, (2R)-2-Amino-4,4-dimethyl-N-[5-[2-(trifluoromethyl)-1H-pyrrolo[2,3-b]pyridin-4-yl]-2-pyridyl]pentanamide]: the IC50 worked out at 307 nM.

`Cc1c(-c2ccnc3[nH]c(C(F)(F)F)cc23)ccc(NC(=O)[C@H](N)CC(C)(C)C)c1F` [Compound F-147, (2R)-2-Amino-N-[2-fluoro-3-methyl-4-[2-(trifluoromethyl)-1H-pyrrolo[2,3-b]pyridin-4-yl]phenyl]-4,4-dimethyl-pentanamide]: the 50% inhibitory concentration (IC50) is 24 nM.

As to `COc1nc(-c2ccnc3[nH]c(C)cc23)ccc1NC(=O)[C@H](N)CC(C)(C)C` [Compound F-148, (2R)-2-Amino-N-[2-methoxy-6-(2-methyl-1H-pyrrolo[2,3-b]pyridin-4-yl)-3-pyridyl]-4,4-dimethyl-pentanamide], the concentration for half-maximal inhibition (IC50) turned out to be 18 nM.

Consider `COc1nc(-c2ccnc3[nH]c(C(F)(F)F)cc23)ccc1NC(=O)[C@H](N)CC(C)(C)C` [Compound F-149, (2R)-2-Amino-N-[2-methoxy-6-[2-(trifluoromethyl)-1H-pyrrolo[2,3-b]pyridin-4-yl]-3-pyridyl]-4,4-dimethyl-pentanamide], for which the concentration for half-maximal inhibition (IC50) worked out at 38 nM.

`COc1nc(-c2ccnc3[nH]c(C(F)F)cc23)ccc1NC(=O)[C@H](N)CC(C)(C)C` [Compound F-150, (2R)-2-Amino-N-[6-[2-(difluoromethyl)-1H-pyrrolo[2,3-b]pyridin-4-yl]-2-methoxy-3-pyridyl]-4,4-dimethyl-pentanamide]: the 50% inhibitory concentration (IC50) is 9 nM.

For the compound `Cc1cc2c(-c3ccc(NC(=O)[C@H](N)CC(C)(C)C)nc3C)ccnc2[nH]1` [Compound F-151, (2R)-2-Amino-4,4-dimethyl-N-[6-methyl-5-(2-methyl-1H-pyrrolo[2,3-b]pyridin-4-yl)-2-pyridyl]pentanamide], the half-maximal inhibitory concentration (IC50) turned out to be 91 nM.

These data come from patent US20250243196A1, “CITRON KINASE INHIBITORS” (The Cleveland Clinic Foundation, priority 2021, published 2025).
